From patent US6399614B1, “1-(N-phenylaminoalkyl)piperazine derivatives substituted at position 2 of the phenyl ring” (Recordati S.A. Chemical and Pharmaceutical Company, priority 1997, dated 2002)
Like-named read-outs stand apart in the source and are kept apart here.

Columns and labels:
[1] = biological target: T1, post-synaptic 5-HT1A receptor (Rattus norvegicus, UniProt P19327); test: Inhibition of forepaw treading induced by 8-OH-DPAT in rats (post-synaptic antagonism); format: in vivo; conditions: for ED50: rat, iv, read-out: Post-synaptic 5-HT1A ID50, heading: Post-synaptic 5-HT1A ID50, dose blocking 50% of forepaw treading induced by 1 mg/kg s.c. 8-OH-DPAT in rats, compound i.v.
T1 construct: from tissue; host or cells: whole animal, male Sprague-Dawley rats
T1 sequence (P19327 1-422): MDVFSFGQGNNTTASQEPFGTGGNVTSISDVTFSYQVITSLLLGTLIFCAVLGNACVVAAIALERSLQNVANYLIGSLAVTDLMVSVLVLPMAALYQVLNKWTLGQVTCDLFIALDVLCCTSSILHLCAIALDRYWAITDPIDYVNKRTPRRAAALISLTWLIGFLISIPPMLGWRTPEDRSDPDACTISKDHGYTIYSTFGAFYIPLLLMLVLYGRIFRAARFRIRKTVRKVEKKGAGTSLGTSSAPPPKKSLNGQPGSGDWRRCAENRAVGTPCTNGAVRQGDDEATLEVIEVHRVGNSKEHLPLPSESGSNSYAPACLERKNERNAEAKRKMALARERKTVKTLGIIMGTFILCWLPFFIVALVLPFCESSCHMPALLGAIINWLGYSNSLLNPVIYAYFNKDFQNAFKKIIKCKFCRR
Description: The inhibitory effect of 5-HT1A receptor antagonists on the forepaw treading induced in rats by subcutaneous injection of 8-OH-DPAT was evaluated by the method of Tricklebank (Tricklebank et al., Eur. J.Pharmacol., 117:15, 1985) with minor modifications as described below. Male Sprague-Dawley rats (150-175 g) obtained from Charles River (Italy), were housed in a climate-controlled room and maintained on a 12 h light/dark cycle with free access to food and water. On the day of experiment, rats were placed singly in clear plastic boxes. Rats were treated with reserpine, 1 mg/kg s.c., 18-24 h before the test to deplete intracellular stores of noradrenaline. For evaluation of antagonistic activity, compounds were i.v. administered 16 min before 8-OH-DPAT (1 mg/kg s.c.). Observation sessions of 30 s duration began 3 min after treatment with the agonist and were repeated every 3 min over a period of 15 min. The appearance of the forepaw treading symptom induced by postsynaptic stimulation of the 5HT1A receptors was noted, and its intensity was scored using a ranked intensity scale in which: 0=absent, 1=equivocal, 2=present and 3=intense. Behavioral scores for each treated rat were accumulated over the time course (5 observation periods) and expressed as mean values of 8-10 rats. A linear regression equation was used in order to evaluate ID50 values, defined as the dose of antagonist needed to block 50% of the forepaw treading intensity induced by 1 mg/kg 8-OH-DPAT administered subcutaneously.

urinary bladder = test: Cystometric parameters (cystometrogram) in conscious rats; format: in vivo, rat; conditions: for BVC after treatment / MP after treatment: mean ± S.E.; for change in vivo at 0.3 mg/kg / change in vivo at 1 mg/kg / change in vivo at 0.1 mg/kg: Rattus norvegicus, iv, 0.25 h, after vs before; for change in vivo at 0.3 mg/kg: i.v. 300 μg/kg; for change in vivo at 1 mg/kg: i.v. 1000 μg/kg; for change in vivo at 0.1 mg/kg: i.v. 100 μg/kg
Description: Male Sprague Dawley rats (Crl: CDo BR) weighing 250-350 g were used. The animals were housed with free access to food and water and maintained on a forced 12 h alternating light-dark cycle at 22-24° C. for at least one week, except during performance of the experiment. To quantify urodynamic parameters in conscious rats, cystometrographic studies were performed using procedures previously described (Guarneri et al., Pharmacol. Res., 24:175, 1991). […] An approximately 10 mm long midline incision was made in the shaved and cleaned abdominal wall. The urinary bladder was gently freed from adhering tissues, emptied, and then cannulated, via an incision at the dome, with a polyethylene cannula (Portex PP30), which was permanently sutured with silk thread. The cannula was exteriorized through a subcutaneous tunnel in the retroscapular area, where it was connected with a plastic adapter to avoid the risk of removal by the animal. For intravenous (i.v.) injection of test compounds, a PE 50 polyethylene tubing filled with physiological saline was inserted into the jugular vein and exteriorized in the retroscapular area. The rats were utilized exclusively one day after implantation. On the day of the experiment, the rats were placed in Bollman's cages, after a stabilization period of 20 min, and the free tip of the bladder catheter was connected through a T-shaped tube to a pressure transducer (Bentley T 800/Marb P 82) and to a peristaltic pump (Gilson minipuls 2) for a continuous infusion, at the constant rate of 0.1 ml/min, of saline solution into the urinary bladder. The intraluminal pressure signal during infusion was continuously recorded on a polygraph (Battaglia Rangoni KO 380 with ADCl/T amplifier).
Two urodynamic parameters were evaluated: bladder volume capacity (BVC) and micturition pressure (MP). BVC (in ml) is defined as the minimum volume infused after which detrusor contraction (followed by micturition) occurs. MP (in mm Hg) is defined as the maximal intravesical pressure induced by the contraction of detrusor during micturition. Basal BVC and MP values were calculated as the means of the first two recorded cystometrograms. At this point in the assay, the infusion was interrupted and the test compounds were administered. Fifteen minutes after intravenous administration two additional cystometrograms were recorded in each animal and the mean values of the two cystometrographic parameters were calculated. The statistical significance of the differences in urodynamic parameter values was evaluated by Student's t test for paired data.

For `COc1ccccc1N1CCN(CCN(C(=O)C2CCCCC2)c2ccccc2)CC1` [Compound A, 1-(N-phenyl-N-cyclohexylcarbonyl-2-aminoethyl)-4-(2-methoxyphenyl)piperazine, reference compound], the “fold less active than compound of Example 2, post-synaptic model” value ([1]; forepaw treading model in rats) was “at least 10 fold”, the ED50 [1] was 0.35 mg/kg and the BVC after treatment (urinary bladder; 15 min after i.v. 300 μg/kg) was 0.87 ± 0.05 mL. The MP after treatment (urinary bladder; 15 min after i.v. 300 μg/kg) was 85.6 ± 11.3 mmHg, the BVC after treatment (urinary bladder; 15 min after i.v. 1000 μg/kg) was 0.97 ± 0.11 mL and the MP after treatment (urinary bladder; 15 min after i.v. 1000 μg/kg) was 84.1 ± 5.2 mmHg. For the same compound, the change in vivo at 0.3 mg/kg (urinary bladder; read-out: BVC % of change) was 7.4%, the change in vivo at 0.3 mg/kg (urinary bladder; read-out: MP % of change) was -5.5% and the change in vivo at 1 mg/kg (urinary bladder; read-out: BVC % of change) was 24.4%. For the same compound, the change in vivo at 1 mg/kg (urinary bladder; read-out: MP % of change) was -6.8% and the “i.v. dose at which a significant increase in BVC was observed” value (urinary bladder; conscious rats, i.v.) was 1.0 mg/kg.
`COc1ccccc1N1CCN(CCN(C(=O)C2CCCCC2)c2ccccc2[N+](=O)[O-])CC1` [Example 2, 1-[N-(2-nitrophenyl)-N-cyclohexylcarbonyl-2-aminoethyl]-4-(2-methoxyphenyl) piperazine] gave an ED50 [1] of 0.036 mg/kg, a BVC after treatment (urinary bladder; 15 min after i.v. 300 μg/kg) of 0.87 ± 0.10 mL and an MP after treatment (urinary bladder; 15 min after i.v. 300 μg/kg) of 80.4 ± 6.5 mmHg. The BVC after treatment (urinary bladder; 15 min after i.v. 1000 μg/kg) was 0.75 ± 0.10 mL, the MP after treatment (urinary bladder; 15 min after i.v. 1000 μg/kg) was 99.6 ± 11.2 mmHg and the change in vivo at 0.3 mg/kg (urinary bladder; read-out: BVC % of change) was 22.5%. For the same compound, the change in vivo at 0.3 mg/kg (urinary bladder; read-out: MP % of change) was -15.7%, the change in vivo at 1 mg/kg (urinary bladder; read-out: BVC % of change) was 21% and the change in vivo at 1 mg/kg (urinary bladder; read-out: MP % of change) was -8.6%. The “effect on MP (in words)” value (urinary bladder; conscious rats, i.v.) was “slight, albeit significant, decrease in MP” and the “i.v. dose at which a significant increase in BVC was observed” value (urinary bladder; conscious rats, i.v.) was 0.3 mg/kg.
`O=C(C1CCCCC1)N(CCN1CCN(c2cccc3[nH]ccc23)CC1)c1ccccc1[N+](=O)[O-]` [Example 13, 1-[N-(2-nitrophenyl)-N-cyclohexylcarbonyl-2-aminoethyl]-4-(4-indolyl)piperazine] showed an ED50 [1] of 0.082 mg/kg, a BVC after treatment (urinary bladder; 15 min after i.v. 100 μg/kg) of 1.07 ± 0.14 mL and an MP after treatment (urinary bladder; 15 min after i.v. 100 μg/kg) of 75.6 ± 13.7 mmHg. It also gave a BVC after treatment (urinary bladder; 15 min after i.v. 300 μg/kg) of 0.95 ± 0.12 mL, an MP after treatment (urinary bladder; 15 min after i.v. 300 μg/kg) of 65.7 ± 13.8 mmHg and a change in vivo at 0.1 mg/kg (urinary bladder; read-out: BVC % of change) of 13.4%. The change in vivo at 0.1 mg/kg (urinary bladder; read-out: MP % of change) was -12.5%, the change in vivo at 0.3 mg/kg (urinary bladder; read-out: BVC % of change) was 30.2% and the change in vivo at 0.3 mg/kg (urinary bladder; read-out: MP % of change) was -10.6%.
In the case of `COC(=O)c1ccccc1N(CCN1CCN(c2ccccc2OC)CC1)C(=O)C1CCCCC1` [Example 18, 1-[N-(2-methoxycarbonylphenyl)-N-cyclohexylcarbonyl-2-aminoethyl]-4-(2-methoxyphenyl)piperazine], the ED50 [1] is reported as 0.084 mg/kg, the BVC after treatment (urinary bladder; 15 min after i.v. 100 μg/kg) is reported as 0.80 ± 0.09 mL and the MP after treatment (urinary bladder; 15 min after i.v. 100 μg/kg) is reported as 48.5 ± 4.9 mmHg. The BVC after treatment (urinary bladder; 15 min after i.v. 1000 μg/kg) was 0.89 ± 0.16 mL, the MP after treatment (urinary bladder; 15 min after i.v. 1000 μg/kg) was 79.3 ± 17.0 mmHg and the change in vivo at 0.1 mg/kg (urinary bladder; read-out: BVC % of change) was 33.3%. For the same compound, the change in vivo at 0.1 mg/kg (urinary bladder; read-out: MP % of change) was -34.3%, the change in vivo at 1 mg/kg (urinary bladder; read-out: BVC % of change) was 40.3% and the change in vivo at 1 mg/kg (urinary bladder; read-out: MP % of change) was -13.5%.
With `COc1ccccc1N1CCN(CCN(C(=O)C2CCCCC2)c2ccccc2OC)CC1` [Example 23, 1-[N-(2-methoxyphenyl)-N-cyclohexylcarbonyl-2-aminoethyl]-4-(2-methoxyphenyl)piperazine] the ED50 [1] was 0.177 mg/kg, the BVC after treatment (urinary bladder; 15 min after i.v. 300 μg/kg) was 0.77 ± 0.03 mL and the MP after treatment (urinary bladder; 15 min after i.v. 300 μg/kg) was 86.4 ± 10.0 mmHg. It also gave a BVC after treatment (urinary bladder; 15 min after i.v. 1000 μg/kg) of 0.89 ± 0.12 mL, an MP after treatment (urinary bladder; 15 min after i.v. 1000 μg/kg) of 61.9 ± 8.5 mmHg and a change in vivo at 0.3 mg/kg (urinary bladder; read-out: BVC % of change) of 54.3%. The change in vivo at 0.3 mg/kg (urinary bladder; read-out: MP % of change) was -7.6%, the change in vivo at 1 mg/kg (urinary bladder; read-out: BVC % of change) was 34.5% and the change in vivo at 1 mg/kg (urinary bladder; read-out: MP % of change) was -17.1%.
